This note sets out measurements from ChEMBL document CHEMBL2375326, “Novel IKKβ inhibitors discovery based on the co-crystal structure by using binding-conformation-based and ligand-based method” (Eur J Med Chem, 2013).

Some results are limits rather than exact numbers.

In the first experiment the target is T1, Inhibitor of nuclear factor kappa-B kinase subunit beta (Homo sapiens, UniProt O14920).
T1 sequence (O14920 whole entry): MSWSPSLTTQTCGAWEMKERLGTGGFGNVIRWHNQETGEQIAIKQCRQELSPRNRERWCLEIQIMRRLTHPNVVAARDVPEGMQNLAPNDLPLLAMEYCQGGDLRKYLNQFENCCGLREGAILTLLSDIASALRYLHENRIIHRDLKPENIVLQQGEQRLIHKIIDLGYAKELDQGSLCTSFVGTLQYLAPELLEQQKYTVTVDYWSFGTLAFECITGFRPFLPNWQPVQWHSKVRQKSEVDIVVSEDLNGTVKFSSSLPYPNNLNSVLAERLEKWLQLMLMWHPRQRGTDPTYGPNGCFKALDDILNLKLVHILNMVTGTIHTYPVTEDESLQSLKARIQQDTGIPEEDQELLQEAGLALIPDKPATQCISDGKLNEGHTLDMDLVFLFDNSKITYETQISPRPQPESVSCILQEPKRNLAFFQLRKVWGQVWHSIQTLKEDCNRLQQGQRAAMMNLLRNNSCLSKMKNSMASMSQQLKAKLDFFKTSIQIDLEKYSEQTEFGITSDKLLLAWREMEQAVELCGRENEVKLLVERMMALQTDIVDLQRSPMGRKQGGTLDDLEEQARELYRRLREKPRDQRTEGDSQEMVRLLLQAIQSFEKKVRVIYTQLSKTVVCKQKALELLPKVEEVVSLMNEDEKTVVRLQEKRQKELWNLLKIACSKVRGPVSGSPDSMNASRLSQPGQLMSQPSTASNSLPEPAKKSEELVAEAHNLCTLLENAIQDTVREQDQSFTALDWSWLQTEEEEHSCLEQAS
The settings on record: read-out: IC50.
As for `Cc1sc(N)c2c(=O)oc3c4ccccc4ccc3c12`, the IC50 was 9690 nM.
Take `Cc1c(-c2ccc3c(c2)COC3)sc(N)c1C#N`: the IC50 worked out at 2440 nM.

The experiment is the same for the next values; noted with them: read-out: pIC50 (converted).
As for `NC(=O)c1sc(-c2ccccc2)cc1N`, the IC50 was 3240 nM.
On the same count and under the same terms, under `Cc1cnc2c(NCCN3CCNCC3)nc3cc(-c4ccccc4)sc3n12` stands 39.8 nM; under `O=S(=O)(c1ccc(-c2ccnc(Nc3cc(F)cc(F)c3)n2)cc1)N1CCNCC1`, 117 nM; under `CN(C)c1ccc(-c2cc(-c3ccccc3O)nc(N)c2C#N)cc1`, 20000 nM.
Same read-out and setting: with `CNc1nc2[nH]c(-c3ccc(F)cc3)cc2c2c1ncn2C` the figure was 42.7 nM; with `Cc1cnc2c(NCCN)nc3cc(-c4ccc[nH]4)sc3n12`, 2.51 nM.
Still for that read-out and setting: with `NC(=O)Nc1sc(C#CC2CC2)cc1C(N)=O` the figure was 263 nM; with `CNc1nc2sc(-c3ccc(SC)cc3)nc2c2c1ncn2C`, 28.2 nM.
In the case of `CNc1nc2[nH]c(-c3cccc(CNC(=O)CCC(N)=O)c3)cc2c2c1ncn2C`, the IC50 was 21.9 nM.
Still for that read-out and setting: with `NC(=O)Nc1ncc(-c2ccccc2)nc1C(N)=O` the figure was 10000 nM; with `NC(=O)Nc1cc(-c2cccc(Cl)c2)sc1C(N)=O`, 39.8 nM.
Consider `CNCCNS(=O)(=O)c1ccc(-c2ccnc3[nH]ccc23)cc1`, for which the IC50 was 32.4 nM.
On the same count and under the same terms, under `CNc1nc2cc(-c3cccc(CCC(=O)O)c3)sc2n2c(C)cnc12` stands 9.12 nM; under `NC(=O)c1sc(-c2ccccc2)cc1NS(=O)(=O)c1ccc(F)cc1`, 1580 nM; under `NC(=O)c1sc(-c2ccccc2)cc1NC(=O)NCc1ccccc1`, 100000 nM.
The same measure, in the same setting: with `CN(CCN)C(=O)c1ccc(Nc2nccc(-c3cc4ccccc4s3)n2)cc1` the figure was over 100000 nM; with `COc1c(C(N)=O)cc(-c2ccccc2)cc1-c1ccncc1`, 15800 nM.
With `CCS(=O)(=O)N1CCC(COc2cc3cnccc3cc2-c2ccccc2)CC1`, the IC50 is 20000 nM.
The same measure, in the same setting: under `CNc1nc2[nH]c(-c3cccc(OC)c3)cc2c2c1ncn2C` stands 7.94 nM; under `CNc1nc2cc(-c3nccs3)sc2c2c1ncn2C`, 229 nM.
On the same count and under the same terms, under `CNc1nc2[nH]c(-c3cccc(CNC(=O)CCOC)c3)cc2c2c1ncn2C` stands 12 nM; under `CN(c1ccc(-c2ccnc3[nH]ccc23)cc1)S(C)(=O)=O`, 316 nM; under `CNc1nc2[nH]c(-c3cccc(C#N)c3)cc2c2c1ncn2C`, 7.08 nM.
In the case of `CCNC(=O)c1ccc(-c2nc3c(nc(NC)c4ncn(C)c43)s2)cc1`, the IC50 was 15.1 nM.
The same measure, in the same setting: with `CNc1nc2sc(-c3ccc(N4CC=CCC4)cc3)nc2c2c1ncn2C` the figure was 33.1 nM.
Take `C#Cc1c(C2CCNCC2)cc(-c2c(O)cccc2OCC2CC2)nc1N`: the IC50 was 8.51 nM.
Still for that read-out and setting: under `NC(=O)Nc1sc(C#Cc2cccc(NC(=O)c3ccccn3)c2)cc1C(N)=O` stands 100000 nM; under `CNC(=O)c1cc(-c2ccc(F)cc2)cc(-c2ccc(N3CCCCC3)cc2)c1N`, 15800 nM.
Take `CNc1nc2sc(-c3ccc(F)cc3)nc2c2c1ncn2C`: the IC50 is 26.3 nM.
On the same count and under the same terms, with `N#Cc1c(-c2ccc([N+](=O)[O-])cc2)cc(-c2ccccc2O)nc1N` the figure was 20000 nM.
On to `CNC(=O)c1sc(-c2ccccc2)cc1NC(N)=O`, for which the IC50 was 100000 nM.
On the same count and under the same terms, with `CNC(=O)c1cc(-c2ccc(F)cc2)cc(-c2ccc(S(C)(=O)=O)cc2)c1N` the figure was 15800 nM.
The same measure, in the same setting: with `N#Cc1c(C2CCCNC2)cc(-c2c(O)cccc2OCc2ccccc2)nc1N` (configuration not stated) the figure was 9.12 nM; with `c1ccc(Oc2ccc(-c3ccnc(Nc4ccc5ncsc5c4)n3)cc2)cc1`, 6030 nM; with `CNc1nc2sc(-c3ccc(C(=O)NCc4cccs4)cc3)nc2c2c1ncn2C`, 15.1 nM.
On the same count and under the same terms, with `Cc1cnc2c(NCCN)nc3cc(-c4ncc[nH]4)sc3n12` the figure was 447 nM.
Turning to `NC(=O)Nc1cc(-c2ccccc2)sc1C(N)=O`, the IC50 was 25.1 nM.
Still for that read-out and setting: with `CC(=O)c1cc2cc(Nc3nccc(-c4ccc(S(=O)(=O)N5CCNCC5)cc4)n3)ccc2o1` the figure was 25.7 nM; with `CNC(=O)c1ccc(-c2nc3c(nc(NC)c4ncn(C)c43)s2)cc1`, 15.1 nM.
On the same count and under the same terms, under `N#Cc1c(C2CCCNC2)cc(-c2c(O)cccc2OCC2CCCCC2)nc1N` (configuration not stated) stands 26.3 nM; under `CNc1nc2cc(-c3ccccc3)sc2n2c(C)cnc12`, 21.9 nM; under `O=C1C=CC(c2ccc(-c3ccnc(Nc4ccc5ncsc5c4)n3)cc2)C=C1`, 2510 nM.

Another experiment addresses T2, Inhibitor of nuclear factor kappa-B kinase subunit beta (Homo sapiens) (UniProt O14920).
T2 sequence (whole entry): T1 sequence (O14920 whole entry)
Description: Inhibition of human IKKbeta using GST-IkappaBalpha as substrate at 10 uM.
Details: not given
`Cc1sc(N)c2c(=O)oc3c4ccccc4ccc3c12` registered an inhibition of 64.1%.
`CCCCc1ccc(-n2cnc3c(=O)[nH]c(N)nc32)cc1` had an inhibition of 41.5%.
The same measure, in the same setting: under `O=C(c1ccco1)c1coc2c1cc(O)c1ccccc12` stands 29.6%; under `Nc1nc(=O)c2ncn(-c3cccc(-c4ccccc4)c3)c2[nH]1`, 47.1%; under `OC[C@@H](O)[C@@H](O)[C@H](O)c1nn(-c2ccccc2)c2nc3ccc(Cl)cc3nc12`, 44.8%.
On the same count and under the same terms, under `CCOC(=O)c1c(N)oc(=O)c2c1-c1ccccc1C2=O` stands 43.8%.
`COC(=O)c1ccc(NC(=O)COc2ccc(S(=O)(=O)NC(C)(C)C)cc2)cc1` gave an inhibition of 23.8%.
Same read-out and setting: under `N#Cc1c(C2CCNCC2)cc(-c2c(O)cccc2OCC2CC2)nc1N` stands 100%.
`CC(C)NC[C@@H](O)COc1cccc2[nH]c3ccccc3c12` displayed an inhibition of 36.7%.
The same measure, in the same setting: under `Cc1c(-c2ccc3c(c2)COC3)sc(N)c1C#N` stands 92.4%; under `NC(=O)C[C@H](Nc1ncc2c(n1)-c1ccccc1OC2)C(=O)O`, 44.4%.
Still for that read-out and setting: with `CC[C@H](OC(=O)Nc1ccc(S(=O)(=O)N2CCCCC2)cc1)c1ccco1` the figure was 44.3%.
Same read-out and setting: under `Cc1ccc(-c2cc3c(c(N)c2C#N)c(=O)oc2ccccc23)o1` stands 23.4%.

A word on the inhibition: it is the change of the read-out against control, counted positive when it falls.
